Consider 18 molecules from ChEMBL document CHEMBL3352288, “Synthesis and biological evaluation of 9α- and 9β-hydroxyamino-parthenolides as novel anticancer agents” (Bioorg Med Chem Lett, 2014).

Common to all, as to assay type: functional, cell-based
For assay [1], the system named is A549. As to the kind of experiment: Anticancer activity against human A549 cells assessed as growth inhibition after 72 hrs by MTT colorimetric assay. Conditions: A549, 72 h.
The test system of assay [2] is Hs 683. As to the kind of experiment: Anticancer activity against human Hs 683 cells assessed as growth inhibition after 72 hrs by MTT colorimetric assay. The settings on record: Hs 683, 72 h.
In assay [3] the test system is MCF7. Nature of the assay: Anticancer activity against human MCF7 cells assessed as growth inhibition after 72 hrs by MTT assay. Conditions: MCF7, 72 h.
Assay [4] has as its system SK-MEL-28. Nature of the assay: Anticancer activity against human SK-MEL-28 cells assessed as growth inhibition after 72 hrs by MTT assay. The settings on record: SK-MEL-28, 72 h.
Assay [5] can be described thus: Anticancer activity against human Glioma cells assessed as growth inhibition after 72 hrs by MTT assay.
A short description of assay [6]: Anticancer activity against mouse B16F10 cells assessed as growth inhibition after 72 hrs by MTT colorimetric assay. The settings on record: B16-F10, 72 h.
Assay [7] relates to T98G. As to the kind of experiment: Anticancer activity against human T98G cells assessed as growth inhibition after 72 hrs by MTT assay.

As to `C/C1=C\CC[C@@]2(C)O[C@@H]2[C@H]2OC(=O)[C@@H](CN3CCCC3)[C@@H]2C[C@H]1O`, the IC50 in assay [1] was found to be 10 µM; in assay [2] it was 15 µM; in assay [3], 21 µM; in assay [4], 19 µM; in assay [5], 5 µM; in assay [6] it was 4 µM.

Take `C/C1=C\CC[C@@]2(C)O[C@@H]2[C@H]2OC(=O)[C@@H](CN3CCCCC3)[C@@H]2C[C@H]1O`: the IC50 stood at 18 µM in assay [1]; 7 µM in assay [2]; 16 µM in assay [3]; 16 µM in assay [4]; 4 µM in assay [5]; 4 µM in assay [6].

Turning to `C/C1=C\CC[C@@]2(C)O[C@@H]2[C@H]2OC(=O)[C@@H](CN3CCN(C)CC3)[C@@H]2C[C@H]1O`, the 50% inhibitory concentration (IC50) is 30 µM in assay [1]; 33 µM in assay [2]; 33 µM in assay [3]; 57 µM in assay [4]; 36 µM in assay [5]; 25 µM in assay [6].

For the molecule `C/C1=C\CC[C@@]2(C)O[C@@H]2[C@H]2OC(=O)[C@@H](CN(C)CCN(C)C)[C@@H]2C[C@H]1O`, the IC50 in assay [1] was 8 µM; in assay [2] it was 9 µM; in assay [3] it was 14 µM; in assay [4], 19 µM; in assay [5], 16 µM; in assay [6], 4 µM.

As to `C/C1=C\CC[C@@]2(C)O[C@@H]2[C@H]2OC(=O)[C@@H](CN3CCOCC3)[C@@H]2C[C@H]1O`, the IC50 in assay [1] is 25 µM; in assay [2] it was 22 µM; in assay [3], 24 µM; in assay [4], 22 µM; in assay [5], 5 µM; in assay [6], 5 µM.

`C/C1=C\CC[C@@]2(C)O[C@@H]2[C@H]2OC(=O)[C@@H](CN3CCN(c4ccccc4)CC3)[C@@H]2C[C@H]1O`: the IC50 in assay [1] is 17 µM; in assay [2] it was 22 µM; in assay [3], 19 µM; in assay [4], 19 µM; in assay [5], 5 µM; in assay [6], 6 µM.

For `C/C1=C\CC[C@@]2(C)O[C@@H]2[C@H]2OC(=O)[C@@H](CN3CCN(c4ccccc4F)CC3)[C@@H]2C[C@H]1O`, the IC50 amounted to 22 µM in assay [1]; 25 µM in assay [2]; 24 µM in assay [3]; 25 µM in assay [4]; 6 µM in assay [5]; 6 µM in assay [6].

`COc1ccc(N2CCN(C[C@@H]3C(=O)O[C@H]4[C@H]3C[C@@H](O)/C(C)=C/CC[C@@]3(C)O[C@H]43)CC2)cc1`: the IC50 in assay [1] stood at 26 µM; in assay [2], 22 µM; in assay [3] it was 24 µM; in assay [4], 25 µM; in assay [5], 18 µM; in assay [6], 14 µM.

Regarding `C/C1=C\CC[C@@]2(C)O[C@@H]2[C@H]2OC(=O)[C@@H](CN3CCCC3)[C@@H]2C[C@@H]1O`, the IC50 came to 9 µM in assay [1]; 10 µM in assay [2]; 18 µM in assay [3]; 23 µM in assay [4]; 15 µM in assay [7]; 7 µM in assay [6].

For `C/C1=C\CC[C@@]2(C)O[C@@H]2[C@H]2OC(=O)[C@@H](CN3CCCCC3)[C@@H]2C[C@@H]1O`, the IC50 in assay [1] came out at 6 µM; in assay [2], 7 µM; in assay [3], 8 µM; in assay [4], 10 µM; in assay [7], 17 µM; in assay [6], 6 µM.

With `C/C1=C\CC[C@@]2(C)O[C@@H]2[C@H]2OC(=O)[C@@H](CN3CCN(C)CC3)[C@@H]2C[C@@H]1O`, the IC50 in assay [1] was 25 µM; in assay [2] it was 22 µM; in assay [3], 22 µM; in assay [4], 23 µM; in assay [7], 23 µM; in assay [6], 9 µM.

As for `C[C@]12O[C@@H]1CC[C@@]1(C)O[C@@H]1[C@H]1OC(=O)[C@@H](CN3CCCCC3)[C@@H]1C[C@H]2O`, the IC50 in assay [1] turned out to be 90 µM; in assay [2], 67 µM; in assay [3] it was 74 µM; in assay [4], 84 µM; in assay [5] it was 59 µM; in assay [6], 46 µM.

On to `C[C@]12O[C@@H]1CC[C@@]1(C)O[C@@H]1[C@H]1OC(=O)[C@@H](CN3CCOCC3)[C@@H]1C[C@H]2O`, for which the IC50 in assay [1] is 23 µM; in assay [2], 24 µM; in assay [3] it was 24 µM; in assay [4] it was 22 µM; in assay [5] it was 12 µM; in assay [6] it was 9 µM.

Consider `C[C@]12O[C@@H]1CC[C@@]1(C)O[C@@H]1[C@H]1OC(=O)[C@@H](CN3CCN(c4ccccc4)CC3)[C@@H]1C[C@H]2O`, for which the IC50 was 48 µM in assay [1]; 31 µM in assay [2]; 59 µM in assay [3]; 51 µM in assay [4]; 35 µM in assay [5]; 22 µM in assay [6].

Turning to `C[C@]12O[C@@H]1CC[C@@]1(C)O[C@@H]1[C@H]1OC(=O)[C@@H](CN3CCN(c4ccccc4F)CC3)[C@@H]1C[C@H]2O`, the IC50 in assay [1] came out at 22 µM; in assay [2], 18 µM; in assay [3] it was 20 µM; in assay [4], 17 µM; in assay [5], 8 µM; in assay [6] it was 5 µM.

On to `C[C@]12O[C@@H]1CC[C@@]1(C)O[C@@H]1[C@H]1OC(=O)[C@@H](CN3CCN(c4ccc(Cl)cc4)CC3)[C@@H]1C[C@H]2O`, for which the IC50 in assay [1] came to 28 µM; in assay [3], 29 µM; in assay [4] it was 31 µM; in assay [7] it was 16 µM; in assay [6], 19 µM.

Take `C=C1C(=O)O[C@H]2[C@H]1C[C@H](O)/C(C)=C/CC[C@@]1(C)O[C@@H]21`: the IC50 turned out to be 24 µM in assay [1]; 25 µM in assay [2]; 23 µM in assay [3]; 25 µM in assay [4]; 25 µM in assay [7]; 15 µM in assay [6].

Regarding `C=C1C(=O)O[C@H]2[C@H]1C[C@@H](O)/C(C)=C/CC[C@@]1(C)O[C@@H]21`, the IC50 amounted to 7 µM in assay [1]; 7 µM in assay [2]; 6 µM in assay [3]; 9 µM in assay [4]; 11 µM in assay [7]; 4 µM in assay [6].
